The target in data set [1] is T1, Rice recombinant CYP701A6 (ent-kaurene oxidase) (Oryza sativa subsp. japonica, UniProt Q5Z5R4).
T1 construct: made in house; host or cells: insect cells (baculovirus vector)
T1 sequence (Q5Z5R4 1-505): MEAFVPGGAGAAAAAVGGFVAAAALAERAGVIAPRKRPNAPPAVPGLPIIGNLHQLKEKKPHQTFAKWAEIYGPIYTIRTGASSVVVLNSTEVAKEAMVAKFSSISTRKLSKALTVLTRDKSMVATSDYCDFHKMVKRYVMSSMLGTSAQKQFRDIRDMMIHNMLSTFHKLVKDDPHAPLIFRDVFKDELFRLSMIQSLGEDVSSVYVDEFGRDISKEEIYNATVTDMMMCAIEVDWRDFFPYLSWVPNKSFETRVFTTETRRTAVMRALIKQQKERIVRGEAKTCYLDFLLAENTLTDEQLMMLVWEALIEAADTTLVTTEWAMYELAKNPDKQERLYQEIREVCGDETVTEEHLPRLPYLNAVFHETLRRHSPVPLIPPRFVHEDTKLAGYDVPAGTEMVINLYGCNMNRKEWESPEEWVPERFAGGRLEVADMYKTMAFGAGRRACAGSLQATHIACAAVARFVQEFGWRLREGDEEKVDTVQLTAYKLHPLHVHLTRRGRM
In words: CYP701A6 inhibition assay (formation of end product KA). It counts as biochemical. The protocol: To evaluate the enzymatic selectivity between CYP707A and CYP701A, we examined the inhibitory activity against recombinant rice containing CYP701A6 expressed in insect cells using a baculovirus vector. This enzyme catalyses all three steps to KA via the corresponding alcohol and aldehyde, and consequently, the kinetic analysis is very complicated. Therefore, we evaluate the IC50 value for the formation of the end product, KA, instead of the KI value.
Reaction mixtures, containing 0.058 μM of […] microsomes, ATR2 (0.115 U), ent-kaurene (final concentration of 10 μM), inhibitors (0 for control, 1.5–1,500 μM in 8 μL dimethylformamide), and 20 mM NADPH in 500 mM potassium phosphate buffer (pH 7.4), were incubated at 30 °C for 10 min. Reactions were initiated by adding NADPH and stopped by the addition of 100 μL of 1 M HCl. Abietic acid, as the internal standard, was then added to the reaction product, which was extracted with EtOAc (400 μL × 3). The organic phase was dried over Na2SO4 and concentrated in vacuo. To derivatize the reaction products, MeOH (50 μL) and trimethylsilyldiazomethane (2 M in 5 μL hexane) were added, and the reaction mixture was incubated at room temperature for 10 min. The organic solvent was removed under N2, and samples were adjusted to 150 μL with hexane before a gas chromatography-mass spectrometry analysis (QP2010-plus; Shimadzu Corp., Kyoto, Japan). The conditions were as follows: the column was DB-5ms (0.25 mm id × 15 m, 0.25 μm film thickness; Agilent J & W, Folsom, CA, USA), the carrier gas was He, the flow rate was 1.65 mL min^−1, the injection port temperature was 280 °C, splitless injection, and the programmed column temperature was a step gradient of 80 °C for 1 min, 80–200 °C at 18 °C min^−1, 200–210 °C at 2 °C min^−1, 210–280 °C at 30 °C min^−1, and then 280 °C for 3 min. The KA content was calculated from the area ratio of molecular and fragment ions of methyl KA (m/z 316, 273, and 257) to those of methyl abietate (m/z 316 and 256). The inhibition ratio was defined as [(A − B)/A] × 100, where A = the amount of methyl KA/methyl abietate when the inhibitor was absent from the reaction mixture (control), and B = the amount of methyl KA/methyl abietate when the inhibitor was present. All of the tests were conducted at least three times.

The test system of another data set is rice seedling growth. In words: Rice seedling elongation assay. It counts as in vivo, Oryza sativa L. cv. Nipponbare. To be noted: 0.3 μM; 7 d. The protocol:
The effects of (−)-Abz-T compounds were also tested on the early growth of rice seedlings to investigate whether the plant growth-retardant effect derived from UNI declined. […] This was the same trend observed for (−)-Abz-E2B[26]. […] Thus, the growth-retardant effects of (−)-Abz-T compounds may arise from an increase in the endogenous ABA level due to the CYP707A inhibition, although we cannot exclude the possibility that Abz-T compounds may inhibit off-target enzymes other than CYP707A and CYP701A.
Figure 4 Effects of (−)-Abz-T compounds on rice seedling growth compared with the effects of UNI and (−)-Abz-E2B. Seedlings grown on test media containing indicated concentrations of azole inhibitors for 7 d. Scale bars represent 10 mm. Compound 6 is also referred to as Abz-E3M.
For the rice seedling elongation assay, seven seeds (Oryza sativa L. cv. Nipponbare) were sterilised with reagent-grade EtOH for 5 min and washed with running tap water. They were then soaked in distilled water and incubated under continuous illumination at 25 °C for 3 d to germinate. The germinated seeds were then soaked in 2 mL of a test medium in a glass tube and grown under continuous illumination at 25 °C. When the seedlings were 7 d old, the length of the second leaf sheath was measured. All of the assays were conducted at least three times.

For data set [2], the target named is T2, Arabidopsis recombinant CYP707A3 (ABA 8′-hydroxylase) (Arabidopsis thaliana, UniProt Q9FH76).
T2 construct: made in house; host or cells: Escherichia coli (microsomal/membrane fraction)
T2 sequence (Q9FH76 1-463): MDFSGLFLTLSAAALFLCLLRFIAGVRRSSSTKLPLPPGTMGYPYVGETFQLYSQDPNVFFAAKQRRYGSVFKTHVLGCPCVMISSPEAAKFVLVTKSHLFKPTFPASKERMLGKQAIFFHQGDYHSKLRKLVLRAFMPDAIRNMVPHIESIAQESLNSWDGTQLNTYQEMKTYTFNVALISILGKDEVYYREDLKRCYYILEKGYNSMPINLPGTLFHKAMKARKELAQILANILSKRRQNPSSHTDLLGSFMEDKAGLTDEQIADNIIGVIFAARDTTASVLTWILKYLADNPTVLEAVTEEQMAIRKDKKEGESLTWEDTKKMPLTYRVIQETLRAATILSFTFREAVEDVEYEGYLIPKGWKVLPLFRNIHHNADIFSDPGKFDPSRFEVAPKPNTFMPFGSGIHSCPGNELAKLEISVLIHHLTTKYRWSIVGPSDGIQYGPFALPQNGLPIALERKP
Kind of data set: CYP707A3 inhibition assay (decrease of enzymatic product PA). It counts as biochemical. Conditions: Arabidopsis recombinant CYP707A3 expressed in E. coli; for IC50: 5 μM ABA as substrate, read-out: CYP707A IC50. The protocol:
The inhibitory activities of Abz-T compounds against ABA 8′-hydroxylase were examined using recombinant Arabidopsis CYP707A3 co-expressed with Arabidopsis P-450 reductase (ATR1) in Escherichia coli[22]. The activity levels were evaluated based on the decrease in the amount of the enzymatic product, PA.
Reactions were initiated by adding NADPH, stopped by the addition of 25 μL of 1 M NaOH and then acidified with 50 μL of 1 M HCl. Reaction products were extracted by loading the mixture onto an Oasis HLB cartridge (1 mL, 30 mg; Waters Corp., Milford, MA, USA) and were washed with 1 mL of 10% MeOH in H2O (v/v) containing 1% acetic acid (AcOH, v/v). The enzyme products were then eluted with 1 mL of MeOH containing 1% AcOH, and the eluate was concentrated in vacuo. Each dried sample was then dissolved in 50 μL of MeOH, and a 20-μL volume was subjected to HPLC (Prominence; Shimadzu Corp., Kyoto, Japan). HPLC conditions were as follows: the octadecylsilyl column was composed of Hydrosphere C18 (150 × 6.0 mm, YMC Co., Ltd., Kyoto, Japan), and the solvent comprised 17% acetonitrile (MeCN) in H2O containing 0.05% AcOH (v/v). The flow rate was 1.0 mL min^−1, and detection was at 254 nm. Enzyme activity was evaluated by determining the amount of PA in control experiments prior to taking each set of measurements. The inhibition constants were determined using the Enzyme Kinetics module of the SigmaPlot 10 software (Systat Software, Inc., San Jose, CA, USA) after determining the inhibition mode by plotting the reaction velocity in the presence and absence of the inhibitor on a double-reciprocal plot. The inhibition ratio was defined as [(A − B)/A] × 100, where A = the amount of PA when the inhibitor was absent from the reaction mixture (control), and B = the amount of PA when the inhibitor was present. All of the tests were conducted at least three times.

For data set [3], the system named is ABA-responsive genes MAPKKK18, RD29A and RD29B. In words: qRT-PCR of ABA-responsive genes in Arabidopsis seedlings. Format: in vivo, Arabidopsis (Columbia accession). Conditions: 10-day-old seedlings, 6 h. The protocol:
Figure 5 Effects of (−)-Abz-E3M on the expression levels of Arabidopsis ABA-responsive genes. Expression of MAPKKK18, RD29A and RD29B after treatment with (−)-Abz-E2B or (−)-Abz-E3M in the absence or presence of 0.25 μM ABA (n = 4, error bar represents s.d.).
Arabidopsis (Columbia accession) were grown for 10 d on agar plates containing 1/2 Murashige and Skoog (MS) and 0.5% sucrose at 22 °C under an 18/6-h light/dark cycle. Seedlings were incubated in the chemical solutions for 6 h. Total RNA from seedlings was isolated using the Plant RNA purification reagent (Thermo Fisher Scientific) according to the manufacturer’s instructions. cDNA was synthesised using the QuantiTec reverse transcription kit (Qiagen). Maize (cv. Gold rush, Sakata Seed Corporation) seedlings were grown in 100-mL pots containing 75 g of moist soil in a glass house. The root parts of the maize seedlings were washed with tap water and dipped in 100 μM (−)-Abz-E3M chemical solution containing 0.05% Tween-20 overnight. Total RNA from maize seedlings was isolated using an RNeasy mini kit (Qiagen) with the ‘on-column’ DNA digestion method. cDNA was synthesised using a High-Capacity cDNA Reverse Transcription Kit (Thermo Fisher Scientific). Real-time PCR using SYBR Premix Ex Taq™ II (Takara) was performed with Step One-Plus (Thermo Fisher Scientific). The primer sets are shown in Supplemental Table S1.

Setting [4] is: Rice recombinant CYP701A6 expressed in insect cells, 10 μM ent-kaurene, formation of KA, read-out: CYP701A IC50.

Read-outs that look alike come from different tables or passages of the source.

With `CC(C)(C)[C@H](O)/C(=C\c1ccc(Cl)cc1)n1cncn1` [UNI, S-uniconazole, reference compound], the IC50 in data set [1] is 57 nM. For the same compound, the “Effect on elongation of rice seedlings” value in the data set with rice seedling growth was “strongly inhibited the elongation of rice seedlings”.
Consider “abscinazole-E2B [(+)-Abz-E2B, reference compound]”, for which the IC50 turned out to be 1100 nM in data set [2] and 1300 nM in data set [1] (setting [4]).
“abscinazole-E2B [(−)-Abz-E2B, reference compound]”: the IC50 in data set [2] is 54 nM; in data set [1] (setting [4]) it was 1200 nM. In addition, the Ki in data set [2] (ABA 1–64 μM, read-out: CYP707A KI) was found to be 38 nM. The “Expression of ABA-responsive genes MAPKKK18, RD29A and RD29B” value in data set [3] (absence of exogenous ABA) is given as “did not induce the expression”; in data set [3] (co-treatment with 0.25 μM ABA), “enhanced the expression levels of ABA-responsive genes”.
For abscinazole-E3M [(+)-6], the IC50 in data set [2] worked out at 1200 nM; in data set [1] (setting [4]), 1600 nM.

Values taken from paper PMC5107945, “Abscinazole-E3M, a practical inhibitor of abscisic acid 8′-hydroxylase for improving drought tolerance” (Scientific Reports, 2016).
